{"source": "paper PMC3242598", "about": "“Phase I study of BIBF 1120 with docetaxel and prednisone in metastatic chemo-naive hormone-refractory prostate cancer patients” (British Journal of Cancer, 2011)", "key": {"[1]": {"tested_on": "advanced lung cancer patients", "set-up": "method as in Reck et al, 2011", "settings": "phase II, ref Reck et al, 2011, cited from earlier work"}, "[2]": {"tested_on": "patients with metastatic, chemo-naive, hormone-refractory prostate cancer (HRPC)", "assay": "Dose escalation: dose-limiting toxicities and maximum tolerated dose", "format": "in vivo", "description": "On days 2–21 (21-day cycle), patients took an oral dose of BIBF 1120 twice daily. Patients were instructed to swallow BIBF 1120 with water at the same time every day to ensure a dose interval of ∼12 h. On day 2 of treatment cycles (TCs) 1 and 2, patients only took the morning dose of BIBF 1120, omitting the evening dose to allow PK evaluation. All patients were premedicated with oral corticosteroids (dexamethasone 8 mg per os or methylprednisolone 32 mg per os, at 12 h and 1 h before docetaxel infusion) and subsequently took 5 mg prednisone oral BID throughout the trial. On day 1 of each TC, patients received an IV infusion of 75 mg m^−2 docetaxel administered over 1 h.\nBased on prior clinical experience, the starting dose of BIBF 1120 in TC 1 was 100 mg BID; doses were escalated in 50 mg increments until the occurrence of a dose-limiting toxicity (DLT). Recognised DLTs included the occurrence of non-haematological related toxicity grade ⩾3 with the exception of alopecia, nail modifications, acute nausea or vomiting and isolated γ-glutamyl transpeptidase elevations. Alternatively, the occurrence of uncomplicated grade 4 neutropenia for >7 days, neutropenia grade ⩾3 associated with fever ⩾38.5 °C, or grade 4 thrombopenia or grade 3 thrombopenia associated with bleeding in […], was defined as a DLT. […]"}, "[3]": {"assay": "Plasma pharmacokinetics of BIBF 1120 (HPLC-MS/MS)", "format": "in vivo, human", "settings": "for Cmax / AUC(0-t) / half-life / Tmax: human, plasma, po, 250 mg; for Cmax: read-out: Cmax, gMean (gCV%); for AUC(0-t): read-out: AUC0−24, gMean (gCV%); for half-life: read-out: t1/2, gMean (gCV%) (converted); for Tmax: read-out: tmax, median and range", "description": "Plasma concentrations of BIBF 1120 and docetaxel were analysed by a validated method using high-performance liquid chromatography coupled with tandem mass spectrometry (HPLC-MS/MS) in the Department of Drug Metabolism and Pharmacokinetics (Boehringer Ingelheim Pharma GmbH & Co KG, Biberach, Germany). The assay comprises sample clean-up by automated solid-phase extraction in a 96-well plate format. Chromatography was achieved on an analytical C18 reversed phase HPLC column with gradient elution. The substance was detected and quantified by HPLC-MS/MS using electrospray ionisation in the positive ion mode. Docetaxel was analysed by HPLC-MS/MS using paclitaxel as an internal standard. The assay comprises sample clean-up by liquid–liquid extraction and chromatography on an analytical C18 reversed phase HPLC column with isocratic elution. […] For docetaxel, the lower limit was 2.5 ng ml^−1 plasma, using a plasma volume of 100 μl. The calculated parameters were plasmatic peak concentrations following the first dose (Cmax), half-life time (t1/2), area under the plasma concentration–time curve (AUCt), apparent clearance after oral administration, and apparent volume of distribution during the terminal phase."}, "[4]": {"tested_on": "metastatic hormone-refractory prostate cancer (HRPC)", "assay": "Evaluation of response (PSA decline, RECIST)", "format": "in vivo, human", "description": "All patients who received at least one dose of BIBF 1120 or docetaxel were assessed during the safety analysis. Intensity of AEs was graded according to Common Terminology Criteria for Adverse Events (CTCAE) version 3.0. Objective response was defined as a PSA decline ⩾50% from the baseline value over two consecutive courses and/or tumour response according to RECIST criteria ([Therasse et al, 2000])."}, "[5]": {"tested_on": "human prostate cancer xenografts", "set-up": "method as in Hilberg et al, 2008", "settings": "human prostate cancer xenografts in athymic mice; ref Hilberg et al, 2008; cited from earlier work"}, "[6]": {"settings": "oral 250 mg BID, day 2 of treatment cycle 2, with docetaxel"}, "[7]": {"settings": "male, oral 250 mg BID, day 2 of treatment cycle 1"}, "[8]": {"settings": "male, oral 250 mg BID, treatment cycle 2"}}, "note": "“Also recorded” adds a separate entry of the source. Where two headings read alike, the source gives them in different places."}
{"smiles": "COC(=O)c1ccc2c(c1)NC(=O)/C2=C(\\Nc1ccc(N(C)C(=O)CN2CCN(C)CC2)cc1)c1ccccc1", "note": "[BIBF 1120]", "values": [{"measurement": "Frequency of CTCAE grade 3/4 liver enzyme elevations", "setting": "[1]; 250 mg BID monotherapy", "result": "~20", "unit": "%"}, {"measurement": "Frequency of CTCAE grade 3/4 liver enzyme elevations", "setting": "[1]; 150-mg BID monotherapy", "result": "none"}, {"measurement": "Maximum tolerated dose (MTD)", "setting": "[2]; continuous daily oral BIBF 1120 + docetaxel 75 mg m^−2 every 3 weeks + prednisone 5 mg BID", "result": 250, "unit": "mg BID"}, {"measurement": "DLTs at dose levels <250 mg BID", "setting": "[2]; in vivo", "result": "no patients experienced DLTs"}, {"measurement": "Exposure with increasing doses", "setting": "[3]; 100–250 mg BID", "result": "dose-dependent increase in exposure"}, {"measurement": "Time to reach steady state", "setting": "[3]; BIBF 1120 BID dosing", "result": 7, "unit": "days"}, {"measurement": "PK interaction between BIBF 1120 and docetaxel/prednisone", "setting": "[3]; combination therapy", "result": "no interactions; also recorded: no hint for PK interaction; also recorded: no indication of PK interaction"}, {"measurement": "Cmax", "setting": "[3]; [6]", "result": 45.9, "unit": "ng/mL"}, {"measurement": "AUC(0-t)", "setting": "[3]; [7]", "result": 454, "unit": "ng·h/mL"}, {"measurement": "half-life", "setting": "[3]; [7]", "result": 7.03, "unit": "h"}, {"measurement": "Cmax", "setting": "[3]; male, oral 250 mg BID, day 2 of treatment cycle 1, with docetaxel", "result": 65, "unit": "ng/mL"}, {"measurement": "half-life", "setting": "[3]; male, oral 250 mg BID, day 2 of treatment cycle 2", "result": 15.4, "unit": "h"}, {"measurement": "Tmax", "setting": "[3]; male, oral 250 mg BID, treatment cycle 1", "result": 3, "unit": "h"}, {"measurement": "AUC(0-t)", "setting": "[3]; [8]", "result": 410, "unit": "ng·h/mL"}, {"measurement": "Tmax", "setting": "[3]; [8]", "result": 2.08, "unit": "h"}, {"measurement": "Cmax, gMean (gCV%)", "setting": "[3]; [6]", "result": "45.8 (98.5) ng ml^−1"}, {"measurement": "Estimated progression-free survival rate at 24 weeks", "setting": "[4]; 250 mg BID + docetaxel/prednisone", "result": 56, "unit": "%"}, {"measurement": "Patients with ⩾50% reduction in PSA levels from baseline (PSA response)", "setting": "[4]; 19 assessable patients, BIBF 1120 + docetaxel/prednisone", "result": 68.4, "unit": "%"}, {"measurement": "Patients with disease response (PSA and/or RECIST)", "setting": "[4]; 19 evaluable patients, BIBF 1120 100–250 mg BID + docetaxel/prednisone", "result": 73.7, "unit": "%"}, {"measurement": "Patients with complete biological response with normalisation of PSA", "setting": "[4]; BIBF 1120 + docetaxel/prednisone", "result": 33.3, "unit": "%"}, {"measurement": "Antitumour activity in vivo", "setting": "[5]", "result": "potent antitumour activity"}]}
